Test results as given in the supplement of paper PMC10307832.

Legend:
Assay in all cases: relative viability (nuclei count vs DMSO), 5 days (fraction); higher = more cells survive
[1] = tested on: COR-L 105
How it was run: (§1)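 Lung cancer cell lines, seeded in 1536-well plates, were treated the following day by pin tool with a single drug or with five library-drug doses (not always all listed) in √10 steps on top of a fixed anchor-drug dose. Cells were fixed and nuclei stained in one step after 5 days, and nuclei were counted. Relative viability is the nuclei count for treated wells divided by that for vehicle wells, reported as medians of duplicate plates.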

[2] = tested on: COR-L23
How it was run: as §1

[3] = tested on: HARA
How it was run: as §1

[4] = tested on: HCC-15
How it was run: as §1

[5] = tested on: HOP-62
How it was run: as §1

[6] = tested on: NCI-H1355
How it was run: as §1

[7] = tested on: NCI-H1395
How it was run: as §1

[8] = tested on: NCI-H1734
How it was run: as §1

[9] = tested on: NCI-H1755
How it was run: as §1

[10] = tested on: NCI-H1793
How it was run: as §1

[11] = tested on: NCI-H1993
How it was run: as §1

[12] = tested on: NCI-H2009
How it was run: as §1

[13] = tested on: NCI-H2170
How it was run: as §1

[14] = tested on: NCI-H2228
How it was run: as §1

[15] = tested on: NCI-H2347
How it was run: as §1

[16] = tested on: NCI-H358
How it was run: as §1

[17] = tested on: NCI-H522
How it was run: as §1

[18] = tested on: NCI-H647
How it was run: as §1

[19] = tested on: NCI-H838
How it was run: as §1

[20] = tested on: SK-MES-1
How it was run: as §1

[21] = tested on: UMC-11
How it was run: as §1

**Q.** With `O=c1cc(N2CCOCC2)oc2c(-c3cccc4c3sc3ccccc34)cccc12` + O=C(CCCCCCC(=O)Nc1ccccc1)NO [Vorinostat] (partner 1 µM) as the compound, how does the relative viability ([1]; first compound 0.01 µM) read?
**A.** 0.764

**Q.** And the relative viability ([1]; first compound 0.03162 µM)?
**A.** 0.788

**Q.** And the relative viability ([1]; first compound 0.1 µM)?
**A.** 0.899

**Q.** What about the relative viability ([1]; first compound 0.3162 µM) of the same compound?
**A.** 0.911

**Q.** And the relative viability ([1]; first compound 1 µM)?
**A.** 0.918

**Q.** And the relative viability ([2]; first compound 0.01 µM)?
**A.** 0.578

**Q.** And the relative viability ([2]; first compound 0.03162 µM)?
**A.** 0.503

**Q.** And the relative viability ([2]; first compound 0.1 µM)?
**A.** 0.473

**Q.** And the relative viability ([2]; first compound 0.3162 µM)?
**A.** 0.424

**Q.** What about the relative viability ([2]; first compound 1 µM) of the same compound?
**A.** 0.54

**Q.** And the relative viability ([3]; first compound 0.01 µM)?
**A.** 0.409

**Q.** What about the relative viability ([3]; first compound 0.03162 µM) of the same compound?
**A.** 0.588

**Q.** And the relative viability ([3]; first compound 0.1 µM)?
**A.** 0.543

**Q.** And the relative viability ([3]; first compound 0.3162 µM)?
**A.** 0.546

**Q.** And the relative viability ([3]; first compound 1 µM)?
**A.** 0.46

**Q.** What about the relative viability ([4]; first compound 0.01 µM) of the same compound?
**A.** 0.839

**Q.** And the relative viability ([4]; first compound 0.03162 µM)?
**A.** 0.775

**Q.** And the relative viability ([4]; first compound 0.1 µM)?
**A.** 0.858

**Q.** And the relative viability ([4]; first compound 0.3162 µM)?
**A.** 0.765

**Q.** And the relative viability ([4]; first compound 1 µM)?
**A.** 0.847

**Q.** What about the relative viability ([5]; first compound 0.01 µM) of the same compound?
**A.** 0.554

**Q.** And the relative viability ([5]; first compound 0.03162 µM)?
**A.** 0.775

**Q.** And the relative viability ([5]; first compound 0.1 µM)?
**A.** 0.58

**Q.** What about the relative viability ([5]; first compound 0.3162 µM) of the same compound?
**A.** 0.605

**Q.** What about the relative viability ([5]; first compound 1 µM) of the same compound?
**A.** 0.685

**Q.** And the relative viability ([6]; first compound 0.01 µM)?
**A.** 0.681

**Q.** What about the relative viability ([6]; first compound 0.03162 µM) of the same compound?
**A.** 0.613

**Q.** And the relative viability ([6]; first compound 0.1 µM)?
**A.** 0.598

**Q.** What about the relative viability ([6]; first compound 0.3162 µM) of the same compound?
**A.** 0.663

**Q.** What about the relative viability ([6]; first compound 1 µM) of the same compound?
**A.** 0.598

**Q.** And the relative viability ([7]; first compound 0.03162 µM)?
**A.** 0.719

**Q.** What about the relative viability ([7]; first compound 0.1 µM) of the same compound?
**A.** 0.565

**Q.** What about the relative viability ([7]; first compound 0.3162 µM) of the same compound?
**A.** 1.05

**Q.** What about the relative viability ([7]; first compound 1 µM) of the same compound?
**A.** 0.635

**Q.** What about the relative viability ([8]; first compound 0.01 µM) of the same compound?
**A.** 0.839

**Q.** And the relative viability ([8]; first compound 0.03162 µM)?
**A.** 0.819

**Q.** And the relative viability ([8]; first compound 0.1 µM)?
**A.** 0.631

**Q.** And the relative viability ([8]; first compound 0.3162 µM)?
**A.** 0.773

**Q.** And the relative viability ([8]; first compound 1 µM)?
**A.** 0.819

**Q.** And the relative viability ([9]; first compound 0.01 µM)?
**A.** 0.828

**Q.** What about the relative viability ([9]; first compound 0.03162 µM) of the same compound?
**A.** 0.775

**Q.** And the relative viability ([9]; first compound 0.1 µM)?
**A.** 0.793

**Q.** And the relative viability ([9]; first compound 0.3162 µM)?
**A.** 0.741

**Q.** And the relative viability ([9]; first compound 1 µM)?
**A.** 0.834

**Q.** And the relative viability ([10]; first compound 0.01 µM)?
**A.** 0.771

**Q.** And the relative viability ([10]; first compound 0.03162 µM)?
**A.** 0.612

**Q.** And the relative viability ([10]; first compound 0.1 µM)?
**A.** 0.672

**Q.** What about the relative viability ([10]; first compound 0.3162 µM) of the same compound?
**A.** 0.76

**Q.** And the relative viability ([10]; first compound 1 µM)?
**A.** 0.658

**Q.** What about the relative viability ([11]; first compound 0.01 µM) of the same compound?
**A.** 1.21

**Q.** And the relative viability ([11]; first compound 0.03162 µM)?
**A.** 0.769

**Q.** What about the relative viability ([11]; first compound 0.1 µM) of the same compound?
**A.** 0.94

**Q.** And the relative viability ([11]; first compound 0.3162 µM)?
**A.** 0.851

**Q.** And the relative viability ([11]; first compound 1 µM)?
**A.** 0.697

**Q.** What about the relative viability ([12]; first compound 0.01 µM) of the same compound?
**A.** 0.715

**Q.** And the relative viability ([12]; first compound 0.03162 µM)?
**A.** 0.727

**Q.** And the relative viability ([12]; first compound 0.1 µM)?
**A.** 0.696

**Q.** What about the relative viability ([12]; first compound 0.3162 µM) of the same compound?
**A.** 0.761

**Q.** What about the relative viability ([12]; first compound 1 µM) of the same compound?
**A.** 0.7

**Q.** What about the relative viability ([13]; first compound 0.01 µM) of the same compound?
**A.** 0.804

**Q.** And the relative viability ([13]; first compound 0.03162 µM)?
**A.** 0.882

**Q.** What about the relative viability ([13]; first compound 0.1 µM) of the same compound?
**A.** 0.697

**Q.** And the relative viability ([13]; first compound 0.3162 µM)?
**A.** 0.784

**Q.** What about the relative viability ([13]; first compound 1 µM) of the same compound?
**A.** 0.824

**Q.** And the relative viability ([14]; first compound 0.01 µM)?
**A.** 0.669

**Q.** What about the relative viability ([14]; first compound 0.03162 µM) of the same compound?
**A.** 0.896

**Q.** And the relative viability ([14]; first compound 0.1 µM)?
**A.** 0.562

**Q.** And the relative viability ([14]; first compound 0.3162 µM)?
**A.** 0.651

**Q.** What about the relative viability ([14]; first compound 1 µM) of the same compound?
**A.** 0.722

**Q.** What about the relative viability ([15]; first compound 0.01 µM) of the same compound?
**A.** 0.622

**Q.** What about the relative viability ([15]; first compound 0.03162 µM) of the same compound?
**A.** 0.547

**Q.** And the relative viability ([15]; first compound 0.1 µM)?
**A.** 0.534

**Q.** And the relative viability ([15]; first compound 0.3162 µM)?
**A.** 0.595

**Q.** What about the relative viability ([15]; first compound 1 µM) of the same compound?
**A.** 0.635

**Q.** And the relative viability ([16]; first compound 0.01 µM)?
**A.** 0.676

**Q.** What about the relative viability ([16]; first compound 0.03162 µM) of the same compound?
**A.** 0.619

**Q.** What about the relative viability ([16]; first compound 0.1 µM) of the same compound?
**A.** 0.75

**Q.** What about the relative viability ([16]; first compound 0.3162 µM) of the same compound?
**A.** 0.702

**Q.** And the relative viability ([16]; first compound 1 µM)?
**A.** 0.689

**Q.** And the relative viability ([17]; first compound 0.01 µM)?
**A.** 0.986

**Q.** What about the relative viability ([17]; first compound 0.03162 µM) of the same compound?
**A.** 0.932

**Q.** And the relative viability ([17]; first compound 0.1 µM)?
**A.** 0.864

**Q.** What about the relative viability ([17]; first compound 0.3162 µM) of the same compound?
**A.** 0.873

**Q.** And the relative viability ([17]; first compound 1 µM)?
**A.** 0.666

**Q.** And the relative viability ([18]; first compound 0.01 µM)?
**A.** 0.662

**Q.** And the relative viability ([18]; first compound 0.03162 µM)?
**A.** 0.708

**Q.** And the relative viability ([18]; first compound 0.1 µM)?
**A.** 0.462

**Q.** And the relative viability ([18]; first compound 0.3162 µM)?
**A.** 0.695

**Q.** What about the relative viability ([18]; first compound 1 µM) of the same compound?
**A.** 0.757

**Q.** And the relative viability ([19]; first compound 0.01 µM)?
**A.** 0.752

**Q.** What about the relative viability ([19]; first compound 0.03162 µM) of the same compound?
**A.** 0.716

**Q.** What about the relative viability ([19]; first compound 0.1 µM) of the same compound?
**A.** 0.686

**Q.** What about the relative viability ([19]; first compound 0.3162 µM) of the same compound?
**A.** 0.657

**Q.** And the relative viability ([19]; first compound 1 µM)?
**A.** 0.698

**Q.** What about the relative viability ([20]; first compound 0.01 µM) of the same compound?
**A.** 1.04

**Q.** And the relative viability ([20]; first compound 0.03162 µM)?
**A.** 1.06

**Q.** What about the relative viability ([20]; first compound 0.1 µM) of the same compound?
**A.** 1.04

**Q.** What about the relative viability ([20]; first compound 0.3162 µM) of the same compound?
**A.** 1.04

**Q.** And the relative viability ([20]; first compound 1 µM)?
**A.** 1.09

**Q.** What about the relative viability ([21]; first compound 0.01 µM) of the same compound?
**A.** 0.386

**Q.** And the relative viability ([21]; first compound 0.03162 µM)?
**A.** 0.368

**Q.** And the relative viability ([21]; first compound 0.1 µM)?
**A.** 0.365

**Q.** What about the relative viability ([21]; first compound 0.3162 µM) of the same compound?
**A.** 0.429

**Q.** And the relative viability ([21]; first compound 1 µM)?
**A.** 0.311
